# Experimental data as given in publication PMC2566978, “Inversion of allosteric effect of arginine on N-acetylglutamate synthase, a molecular marker for evolution of tetrapods” (BMC Biochemistry, 2008).
# Key:
# Test in all cases: NAGS activity assay, purified enzyme
# Format in all cases: biochemical
# pufferfish NAGS = target: T1, pufferfish NAGS (Takifugu rubripes, UniProt H2T4D9); conditions: read-out: % inhibition at 1 mM
# T1 sequence (H2T4D9 51-529): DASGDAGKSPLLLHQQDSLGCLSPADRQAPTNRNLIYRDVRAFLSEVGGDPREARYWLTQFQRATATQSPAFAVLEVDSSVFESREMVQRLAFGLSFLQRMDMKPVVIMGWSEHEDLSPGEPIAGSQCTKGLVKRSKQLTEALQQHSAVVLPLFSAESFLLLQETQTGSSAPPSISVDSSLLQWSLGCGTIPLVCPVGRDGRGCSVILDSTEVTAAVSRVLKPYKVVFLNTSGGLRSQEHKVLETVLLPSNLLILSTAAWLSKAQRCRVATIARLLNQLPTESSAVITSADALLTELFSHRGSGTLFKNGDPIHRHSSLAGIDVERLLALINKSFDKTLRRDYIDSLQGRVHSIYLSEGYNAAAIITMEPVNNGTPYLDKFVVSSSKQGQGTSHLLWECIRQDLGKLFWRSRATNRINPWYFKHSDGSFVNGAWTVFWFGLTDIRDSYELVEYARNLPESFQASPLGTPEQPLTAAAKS
# zebrafish NAGS = target: T2, zebrafish NAGS (Danio rerio, UniProt E7FCP8); conditions: read-out: % inhibition at 1 mM
# T2 sequence (E7FCP8 40-527): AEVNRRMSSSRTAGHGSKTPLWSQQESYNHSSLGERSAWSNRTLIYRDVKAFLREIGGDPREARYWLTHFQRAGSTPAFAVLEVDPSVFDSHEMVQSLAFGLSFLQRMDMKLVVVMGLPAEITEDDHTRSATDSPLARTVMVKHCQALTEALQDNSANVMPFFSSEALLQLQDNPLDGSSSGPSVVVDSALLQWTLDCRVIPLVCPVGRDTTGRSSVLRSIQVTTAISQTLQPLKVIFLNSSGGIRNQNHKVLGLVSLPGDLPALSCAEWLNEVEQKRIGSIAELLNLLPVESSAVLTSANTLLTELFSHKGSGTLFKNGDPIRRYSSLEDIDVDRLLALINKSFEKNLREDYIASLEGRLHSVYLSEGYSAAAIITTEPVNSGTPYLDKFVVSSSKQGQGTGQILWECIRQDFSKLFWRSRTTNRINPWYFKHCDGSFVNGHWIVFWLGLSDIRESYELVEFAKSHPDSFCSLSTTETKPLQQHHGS
# [1] = target: T3, NAGS from X. laevis (African clawed frog) (Xenopus laevis, UniProt A0A8J1M136); conditions: 50 mM glutamate, 12.5 mM AcCoA, room temperature; allosteric activator
# T3 construct: gene LOC108702180
# T3 sequence (A0A8J1M136 31-491): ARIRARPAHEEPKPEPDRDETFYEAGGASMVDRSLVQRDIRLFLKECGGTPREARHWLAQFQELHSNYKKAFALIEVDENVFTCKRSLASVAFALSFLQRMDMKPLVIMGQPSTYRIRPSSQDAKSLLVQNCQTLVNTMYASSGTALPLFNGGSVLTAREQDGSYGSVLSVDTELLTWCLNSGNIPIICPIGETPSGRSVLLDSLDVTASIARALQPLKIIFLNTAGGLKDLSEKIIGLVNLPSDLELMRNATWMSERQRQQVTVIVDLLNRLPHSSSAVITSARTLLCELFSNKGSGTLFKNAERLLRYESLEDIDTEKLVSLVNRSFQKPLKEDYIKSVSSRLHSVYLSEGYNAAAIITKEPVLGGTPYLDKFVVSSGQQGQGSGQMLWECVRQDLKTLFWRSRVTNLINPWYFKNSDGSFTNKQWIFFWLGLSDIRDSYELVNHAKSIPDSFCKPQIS
# [2] = target: T4, NAGS from X. tropicalis (Western clawed frog) (Xenopus tropicalis, UniProt F6X3J6); conditions: 50 mM glutamate, 12.5 mM AcCoA, room temperature; allosteric activator
# T4 sequence (F6X3J6 39-491): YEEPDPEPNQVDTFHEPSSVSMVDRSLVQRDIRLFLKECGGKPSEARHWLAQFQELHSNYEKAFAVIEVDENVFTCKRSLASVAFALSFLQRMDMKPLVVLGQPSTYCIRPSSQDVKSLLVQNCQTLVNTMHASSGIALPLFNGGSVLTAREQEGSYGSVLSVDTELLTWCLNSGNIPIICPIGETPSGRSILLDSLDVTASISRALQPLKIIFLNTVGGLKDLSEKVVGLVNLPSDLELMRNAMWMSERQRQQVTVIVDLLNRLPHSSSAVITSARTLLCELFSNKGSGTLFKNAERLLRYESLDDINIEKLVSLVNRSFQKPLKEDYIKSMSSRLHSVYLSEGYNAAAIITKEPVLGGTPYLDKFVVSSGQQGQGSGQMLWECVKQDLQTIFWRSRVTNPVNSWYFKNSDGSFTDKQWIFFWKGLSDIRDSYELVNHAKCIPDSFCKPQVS
compound,measurement,setting,value
N=C(N)NCCC[C@H](N)C(=O)O [L-arginine],inhibition at 1000 µM,pufferfish NAGS,~20%
same,inhibition at 1000 µM,zebrafish NAGS,~50%
same,% activation at 1 mM,[1],20%
same,% activation at 1 mM,[2],38%
